Assay results: patent publication US12239652B2, “Composition for preventing or treating muscular diseases, or for improving muscular functions, containing ganglioside” (INDUSTRY-ACADEMIC COOPERATION FOUNDATION, YONSEI UNIVERSITY, priority 2018, dated 2025)

Tests used:
mTOR = mTOR Sandwich ELISA in L6 myotubes (activity for myogenic induction); format: cell-based; settings: 12-h culture, *P<0.05
Experimental: The mTOR protein is known to induce the activation of proteins involved in muscle protein synthesis and an increase in muscle mass in the PI3K/Akt signaling pathway in muscle cells when phosphorylated and activated. Thus, the activity of mTOR was confirmed using an mTOR Sandwich ELISA kit (Cell Signaling Technology, Beverly, MA, USA) to determine the activity of ganglioside GM3 for myogenic induction.
L6 myoblasts (ATCC; Manassas, VA, USA) were seeded with Dulbecco's modified Eagle's media (DMEM; Hyclone) supplemented with 10% fetal bovine serum (FBS; Hyclone, Logan, UT, USA) in a 6-well plate at a density of 1×10^5 cells/well, followed by culture for 24 h. The media in the wells were replaced with DMEM (Hyclone) supplemented with 2% horse serum (HS; Hyclone), followed by culture for additional 6 days to differentiate the L6 cells into myotubes. Then, cells were treated with ganglioside GM3 (Cayman, Ann Arbor, MI, USA) at a concentration of 1 μM or 5 μM. After 12-h culture, cells were lysed by treatment with a cell lysis buffer. Proteins in the cell lysate were quantified by the Bradford method (Bio-Rad Laboratories Inc., Hercules, CA, USA) and the concentration of the cell lysate was then adjusted to 1 mg/mL. The cell lysate was plated in microwells bound with anti-mTOR antibody (50 μL/well) and cultured at 37° C. for 2 h. Cells were washed a total of 4 times with a washing buffer, treated with a detection antibody, and cultured at 37° C. for 1 h, rewashed a total of 4 times with a washing buffer, added with a horseradish peroxidase (HRP)-conjugated secondary antibody, and cultured at 37° C. for 30 min. Finally, after washing a total of 4 times with a washing buffer, TMB substrate was added to each well. After culture at 37° C. for 10 min, a stop solution was added to stop the TMB reaction. 2 min later, absorbance was measured at a wavelength of 450 nm to determine the level of mTOR in the myotubes treated with ganglioside GM3.
The procedure of Example 1 was repeated except that cells were treated with ganglioside GM1 (Cayman) at a concentration of 15 μM or 25 μM to examine the activity of the ganglioside for myogenic induction.
The procedure of Example 1 was repeated except that cells were treated with ganglioside GD1a (Cayman) at a concentration of 1 μM or 3 μM to examine the activity of the ganglioside for myogenic induction.
The procedure of Example 1 was repeated except that cells were treated with each of gangliosides GT1b and GQ1b (Cayman) at a concentration of 1 μM to examine the activity of the ganglioside for myogenic induction.

atrogin-1 = assay: RT-PCR of muscle degrading protein mRNA in TNF-α-treated L6 myotubes: atrogin-1; format: cell-based; settings: 50 ng/mL TNF-α
Experimental: (§1) L6 myoblasts (ATCC) were seeded with DMEM (Hyclone) supplemented with 10% FBS (Hyclone) in a 6-well plate at a density of 1×10^5 cells/well, followed by culture. When the cultured cells reached a confluency of ˜80-85% per well, the media in the wells were replaced with DMEM (Hyclone) supplemented with 2% HS (Hyclone), followed by culture for additional 6 days to induce differentiation into myotubes. During culture for 6 days, the culture media were changed once every other day a total of 3 times. The differentiation-induced cells were harvested and the cell media were replaced with DMEM supplemented with 50 ng/mL TNF-α (PeproTech) in which ganglioside GM3 (Cayman) was dissolved at a concentration of 1 μM or 5 μM. A group treated with 0.01% DMSO instead of the sample was used as a control. Total RNA was isolated from cells using TRIzol reagent (Takara, Kyoto, Japan). The isolated total RNA was quantified using NanoDrop 1000 (Thermo Fisher Scientific Inc., Waltham, MA, USA). 16 μL of the RNA was synthesized into cDNA using Reverse Transcriptase Premix (ELPIS-Biotech) and a PCR system (Gene Amp PCR System 2700; Applied Biosystems, Foster City, CA, USA) at 42° C. for 55 min and 70° C. for 15 min. 3 μL of the synthesized cDNA, the specific primers shown in Table 1 (Bioneer, Daej eon, Korea), and PCR premix (ELPIS-Biotech) were mixed and PCR was repeated 30 times at 95° C. for 30 sec, 60° C. for 1 min, and 72° C. for 1 min. After PCR amplification, cDNA was separated by electrophoresis on a 1.5% agarose gel and the cDNA bands were visualized using a G;BOX EF imaging system (Syngene).
(§2) The procedure of Example 8 was repeated except that cells were treated with ganglioside GM1 (Cayman) at a concentration of 15 μM or 25 μM to investigate the mRNA transcription and expression levels of atrogin-1 and MuRF1 as muscle degrading proteins.
(§3) The procedure of Example 8 was repeated except that cells were treated with ganglioside GD1a (Cayman) at a concentration of 1 μM or 3 μM to investigate the mRNA transcription and expression levels of atrogin-1 and MuRF1 as muscle protein degradation-related enzymes.
(§4) The procedure of Example 8 was repeated except that cells were treated with each of gangliosides GT1b and GQ1b (Cayman) at a concentration of 1 μM to investigate the mRNA transcription and expression levels of atrogin-1 and MuRF1 as muscle protein degradation-related enzymes.

MuRF1 = assay: RT-PCR of muscle degrading protein mRNA in TNF-α-treated L6 myotubes: MuRF1; format: cell-based; settings: 50 ng/mL TNF-α
Experimental: as §1, §2, §3, §4

Wistar rats = assay: Muscle mass (soleus weight) in TNF-α-induced muscular atrophy animal model; format: in vivo; settings: 50 mg/kg body weight once a day for 8 weeks; for Average soleus weight: right soleus, control 416.0 ± 19.57
Experimental: Wistar rats, aged five weeks, were acclimatized for one week and supplied with 100 ng/g of TNF-α for 2 weeks to induce muscular atrophy. The animals were randomly divided into a total of 5 groups, 8 animals per group, depending on their weight. Each of gangliosides GM3, GM1, GD1a, GT1b, and GQ1b (each 50 mg/kg body weight) as experimental groups was suspended in 0.25% carboxymethylcellulose. The suspension was administered at a given time once a day for 8 weeks. A group administered the same amounts of 0.25% carboxymethyl cellulose and TNF-α ingested by each experimental group was used as a control.
After administration of the sample for 8 weeks, the right soleus was dissected and its weight was measured with a microbalance (Mettler PE160, USA).

p-mTOR = assay: Western blot of mRNA translation biomarkers in TNF-α-treated L6 myotubes: p-mTOR; format: cell-based; settings: 50 ng/mL TNF-α
Experimental: (§5) L6 myoblasts (ATCC) were seeded with DMEM (Hyclone) supplemented with 10% FBS (Hyclone) in a 6-well plate at a density of 1×10^5 cells/well, followed by culture. When the cultured cells reached a confluency of ˜80-85% per well, the media in the wells were replaced with DMEM (Hyclone) supplemented with 2% HS (Hyclone), followed by culture for additional 6 days to induce differentiation into myotubes. During culture for 6 days, the culture media were changed once every other day a total of 3 times. […] A group treated with 0.01% DMSO instead of the sample was used as a control. Cells were lysed with NP-40 buffer (ELPIS-Biotech, Daej eon, Korea) with a protease inhibitor cocktail (Sigma-Aldrich, St. Louis, MO, USA) and centrifuged at 13,000 rpm for 10 min. The cell lysate was obtained from the supernatant. The concentration of proteins in the supernatant was determined by the Bradford method (Bio-Rad Laboratories Inc.). Proteins at a certain concentration were heated for 5 min and separated by SDS-PAGE electrophoresis. The separated proteins were transferred to nitrocellulose membranes. Then, p-mTOR, mTOR, p-p70S6K, p70S6K, p-4EBP1, 4EBP1, and alpha-tubulin primary antibodies (Cell signaling technology, Beverly, MA, USA) were diluted at a ratio of 1:1000 with 2.5% bovine serum albumin (BSA; Bioworld, Dubin, OH, USA) and incubated with the proteins transferred to the nitrocellulose membranes at room temperature for 20 h. After incubation of the primary antibodies, the nitrocellulose membranes were washed 3 times with Tris-buffer saline Tween 20 (TBST) for 10 min. After washing, an anti-rabbit secondary antibody (Bethyl Laboratories, Inc., Montgomery, TA, USA) conjugated with horseradish peroxidase recognizing the primary antibodies was diluted 1:5000 with 2.5% BSA (Bioworld) and incubated with the nitrocellulose membranes at room temperature for 2 h. […]
(§6) Protein bands detected through antibody binding were developed using an ECL western blot detection reagent (Amersham, Tokyo, Japan) and visualized using a G;BOX EF imaging system (Syngene, Cambridge, UK). […]

p-p70S6K = assay: Western blot of mRNA translation biomarkers in TNF-α-treated L6 myotubes: p-p70S6K; format: cell-based; settings: 50 ng/mL TNF-α
Experimental: as §5, §6

p-4EBP1 = assay: Western blot of mRNA translation biomarkers in TNF-α-treated L6 myotubes: p-4EBP1; format: cell-based; settings: 50 ng/mL TNF-α
Experimental: as §5, §6

SMILES | activity of mTOR in L6 muscle cells (mTOR; 1 μM) | mRNA expression level of atrogin-1 in L6 muscle cells (atrogin-1; 1 μM) | mRNA expression level of MuRF1 in L6 muscle cells (MuRF1; 1 μM) | increase of muscle (soleus) weight compared to the control group (Wistar rats) [%] | Average soleus weight (Wistar rats) [mg] | activity of mTOR in L6 muscle cells (mTOR; 15 μM or 25 μM) | expression level of phosphorylated p-mTOR in L6 muscle cells (p-mTOR; 15 μM or 25 μM) | expression level of phosphorylated p-P70S6K in L6 muscle cells (p-p70S6K; 15 μM or 25 μM) | expression level of phosphorylated p-4EBP1 in L6 muscle cells (p-4EBP1; 15 μM or 25 μM) | mRNA expression level of atrogin-1 in L6 muscle cells (atrogin-1; 15 μM or 25 μM) | mRNA expression level of MuRF1 in L6 muscle cells (MuRF1; 15 μM or 25 μM) | activity of mTOR in L6 muscle cells (mTOR; 1 μM or 3 μM) | expression level of phosphorylated p-mTOR in L6 muscle cells (p-mTOR; 1 μM or 3 μM) | expression level of phosphorylated p-P70S6K in L6 muscle cells (p-p70S6K; 1 μM or 3 μM) | expression level of phosphorylated p-4EBP1 in L6 muscle cells (p-4EBP1; 1 μM or 3 μM) | mRNA expression level of atrogin-1 in L6 muscle cells (atrogin-1; 1 μM or 3 μM) | mRNA expression level of MuRF1 in L6 muscle cells (MuRF1; 1 μM or 3 μM)
CCCCCCCCCCCCC/C=C/[C@@H](O)[C@H](CO[C@@H]1OC(CO)[C@@H](O[C@@H]2OC(CO)[C@H](O[C@H]3OC(CO)[C@H](O)C(O[C@@H]4OC(CO)[C@@H](O)C(O[C@]5(C(=O)O)CC(O)[C@@H](NC(C)=O)C([C@@H](O)[C@H](CO)O[C@]6(C(=O)O)CC(O)[C@@H](NC(C)=O)C([C@@H](O)[C@H](O)CO)O6)O5)C4O)C3NC(C)=O)C(O[C@]3(C(=O)O)CC(O)[C@@H](NC(C)=O)C([C@@H](O)[C@H](CO)O[C@]4(C(=O)O)CC(O)[C@@H](NC(C)=O)C([C@@H](O)[C@H](O)CO)O4)O3)C2O)C(O)C1O)NC(=O)CCCCCCCCCCCCCCCCC (some centres unmarked) [Ganglioside GQ1b, ganglioside GQ1b] | significantly increased | reduced | reduced | 16.37 | 484.1 ± 25.4 |  |  |  |  |  |  |  |  |  |  |  | 
CCCCCCCCCCCCC/C=C/[C@@H](O)[C@H](CO[C@@H]1O[C@H](CO)[C@@H](O[C@@H]2O[C@H](CO)[C@H](O[C@@H]3O[C@H](CO)[C@H](O)[C@H](O[C@@H]4O[C@H](CO)[C@H](O)[C@H](O)[C@H]4O)[C@H]3NC(C)=O)[C@H](O[C@]3(C(=O)O)C[C@H](O)[C@@H](NC(C)=O)[C@H]([C@H](O)[C@H](O)CO)O3)[C@H]2O)[C@H](O)[C@H]1O)NC(=O)CCCCCCCCCCCCCCCCC [Ganglioside GM1, ganglioside GM1] |  |  |  | 22.11 | 508.0 ± 19.8 | significantly increased | increased | increased | increased | reduced | reduced |  |  |  |  |  | 
CCCCCCCCCCCCC/C=C/[C@@H](O)[C@H](CO[C@@H]1OC(CO)[C@@H](O[C@@H]2OC(CO)[C@H](O[C@H]3OC(CO)[C@H](O)C(OC4OC(CO)C(O)[C@H](O[C@]5(C(=O)O)CC(O)[C@@H](NC(C)=O)C([C@@H](O)[C@H](O)CO)O5)C4CO)C3NC(C)=O)C(O[C@]3(C(=O)O)CC(O)[C@@H](NC(C)=O)C([C@@H](O)[C@H](CO)O[C@]4(C(=O)O)CC(O)[C@@H](NC(C)=O)C([C@@H](O)[C@H](O)CO)O4)O3)C2O)C(O)C1O)NC(=O)CCCCCCCCCCCCCCCCC (some centres unmarked) [Ganglioside GT1b, ganglioside GT1b] | significantly increased | reduced | reduced | 14.42 | 476.0 ± 24.1 |  |  |  |  |  |  |  |  |  |  |  | 
CCCCCCCCCCCCC/C=C/[C@@H](O)[C@H](CO[C@@H]1OC(CO)[C@@H](O[C@@H]2OC(CO)[C@H](O[C@H]3OC(CO)[C@H](O)C(O[C@@H]4OC(CO)[C@H](O[C@]5(C(=O)O)CC(O)[C@@H](NC(C)=O)C([C@@H](O)[C@H](O)CO)O5)C(O)C4O)C3NC(C)=O)C(O[C@]3(C(=O)O)CC(O)[C@@H](NC(C)=O)C([C@@H](O)[C@H](O)CO)O3)C2O)C(O)C1O)NC(=O)CCCCCCCCCCCCCCCCC (some centres unmarked) [Ganglioside GD1a, ganglioside GD1a] |  |  |  | 17.79 | 490.0 ± 22.8 |  |  |  |  |  |  | significantly increased | increased | increased | increased | reduced | reduced
